The assay has as its target T1, mouse CB1 receptor (Mus musculus, UniProt P47746).
T1 construct: radioligand displacement assay using mouse brain plasma membranes; from tissue; host or cells: mouse brain plasma membranes
Description: radioligand displacement assay using mouse brain plasma membranes and 3H-CP55540. It is filed as binding. An excerpt: In addition, the compounds disclosed herein may be less lipophilic.
(In general: Displacement assays read how much labelled ligand stays bound in the presence of the test substance.)

Here are results for three molecules from patent US10329259B2, “Pyrazole derivatives and their use as cannabinoid receptor mediators” (The United States of America, as represented by the …, priority 2014, dated 2019).

Read-outs that look alike come from different tables or passages of the source.

The Ki is the dissociation constant of the complex between target and ligand, obtained from inhibition or displacement.

T1 sequence (P47746 whole entry): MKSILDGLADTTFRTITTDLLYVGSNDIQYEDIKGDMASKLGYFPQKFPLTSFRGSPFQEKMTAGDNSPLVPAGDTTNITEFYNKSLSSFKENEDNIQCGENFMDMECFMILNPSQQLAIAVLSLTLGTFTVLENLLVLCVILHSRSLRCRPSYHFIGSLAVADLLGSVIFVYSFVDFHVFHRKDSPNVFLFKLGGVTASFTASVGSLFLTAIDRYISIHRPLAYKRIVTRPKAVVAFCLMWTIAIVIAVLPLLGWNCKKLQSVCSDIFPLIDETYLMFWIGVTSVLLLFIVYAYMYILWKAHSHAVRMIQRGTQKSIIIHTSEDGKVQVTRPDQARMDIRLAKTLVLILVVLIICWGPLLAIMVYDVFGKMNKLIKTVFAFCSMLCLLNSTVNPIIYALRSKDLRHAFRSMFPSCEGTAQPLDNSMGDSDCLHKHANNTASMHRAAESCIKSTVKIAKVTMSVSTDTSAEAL

In turn, `CC(C)(C)/C(N)=N/C(=N/S(=O)(=O)N1CCC(F)(F)CC1)N1CC(c2ccccc2)C(c2ccc(Cl)cc2)=N1` (stereo not drawn) [Table 1 Serial # 10] showed an inhibitory constant (Ki) of 21 nM.
`CC(=O)NC(=N)NC(=NS(=O)(=O)N1CCC(F)(F)CC1)N1CC(c2ccccc2)C(c2ccc(Cl)cc2)=N1` (stereo not drawn) [MRI-1950]: the Ki (mouse brain plasma membranes, 3H-CP55540 as labeled ligand, read-out: Ki CB1) was 1.2 nM.
For `C/C(N)=N/C(=N/S(=O)(=O)N1CCC(C(F)(F)F)CC1)N1CC(c2ccccc2)C(c2ccc(Cl)cc2)=N1` (stereo not drawn) [Table 1 Serial # 13], the inhibition constant (Ki) is 3 nM.
